Some test systems named below: 786-0 renal; DU-145 prostate; HCC-2998 colon; HOP-62 NSCLC; HOP-92 NSCLC; MCF7 breast; MOLT-4 leukemia; NCI-H522 lung; TK-10 renal; UACC-62 melanoma.
Common to all, as to experiment: DTP human tumour cell line panel, 48 h

Where “and” joins values, the source holds several entries; their conditions need not be identical. Equal values may be shown once.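 Exposure lasted 48 hours, with cells grown in 96-well plates and compounds tested at five concentrations. GI50: concentration for 50% inhibition of growth. At the TGI there is no net growth.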

In the case of `Clc1ccc(N2COOC3(OOC2)C2CC4CC(C2)CC3C4)cc1`, the GI50 (usually the concentration at which growth is held to half of that of the control) in the test on 786-0 renal was 1.21 µM; with DU-145 prostate, 8.83 µM; in the test with HCC-2998 colon, over 24.4 µM; with HOP-62 NSCLC, 13.9 µM; in the test on HOP-92 NSCLC, 14.9 µM; with MCF7 breast, 3.98 µM. In addition, the GI50 in the test with MOLT-4 leukemia is 3.82 µM; in the test with NCI-H522 lung, 1.75 µM; in the test with TK-10 renal, 4.98 µM; in the test on UACC-62 melanoma it was 1.01 µM. Moreover, the TGI (as a rule, the concentration at which net growth stops) with 786-0 renal was 5.73 µM; in the test on DU-145 prostate, over 89 µM; with HCC-2998 colon, over 100 µM; in the test with HOP-62 NSCLC it was 38.6 µM; in the test on HOP-92 NSCLC, 43.5 µM; in the test with MCF7 breast it was over 46.1 µM. The TGI with MOLT-4 leukemia was over 50.7 µM; with NCI-H522 lung, 6.91 µM; in the test with TK-10 renal, 10.5 µM; in the test on UACC-62 melanoma, over 43 µM.
`Cc1c(C(=O)CCl)c(=O)n(-c2ccccc2)n1C`: the GI50 in the test on 786-0 renal was 10.7 µM; in the test with DU-145 prostate, 2.22 µM; in the test on HCC-2998 colon it was 12.9 µM; with HOP-62 NSCLC it was 11.5 µM; in the test on HOP-92 NSCLC, 1.56 µM; with MCF7 breast it was 2.73 µM. Further, the GI50 in the test with MOLT-4 leukemia is 2.48 µM; with NCI-H522 lung, 1.46 µM; in the test with TK-10 renal, 3.81 µM; with UACC-62 melanoma, 4.78 µM. Besides, the TGI came to 24.3 µM in the test with 786-0 renal; 5.36 µM in the test with DU-145 prostate; 26.6 µM with HCC-2998 colon; 27.3 µM with HOP-62 NSCLC; 13.2 µM in the test with HOP-92 NSCLC; 11.6 µM in the test on MCF7 breast. For the same compound, the TGI with MOLT-4 leukemia was found to be 11.5 µM; with NCI-H522 lung it was 3.23 µM; in the test on TK-10 renal, 15.2 µM; with UACC-62 melanoma it was 18.9 µM.
Turning to `Cc1c(C(=O)N/N=C/c2ccc(O)cc2)nnn1-c1ccnc2c(C(F)(F)F)cccc12`, the GI50 was 44.4 µM with 786-0 renal; over 100 µM in the test on DU-145 prostate; over 100 µM with HCC-2998 colon; 17.5 µM with HOP-62 NSCLC; 17 µM in the test with HOP-92 NSCLC; 9.12 µM in the test on MCF7 breast. Moreover, the GI50 in the test on MOLT-4 leukemia was over 100 µM; in the test with NCI-H522 lung it was 49.9 µM; in the test with TK-10 renal, over 100 µM; in the test on UACC-62 melanoma, over 100 µM. Moreover, the TGI with 786-0 renal was over 100 µM; in the test on DU-145 prostate, over 100 µM; with HCC-2998 colon it was over 100 µM; in the test on HOP-62 NSCLC, 37 µM; with HOP-92 NSCLC, 50.4 µM; in the test with MCF7 breast it was over 100 µM. In addition, the TGI in the test on MOLT-4 leukemia, in the test on NCI-H522 lung, in the test with TK-10 renal and in the test on UACC-62 melanoma was over 100 µM throughout.
Turning to `CCOC(=O)Oc1c(OC)cc(C(=O)c2ccc(OC)c(OC(=O)CCl)c2OC)cc1OC`, the GI50 in the test on 786-0 renal is 3.45 µM; with DU-145 prostate it was 1.83 µM; in the test on HCC-2998 colon, 3.36 µM; with HOP-62 NSCLC, 0.836 µM; in the test on HOP-92 NSCLC it was 1.78 µM; with MCF7 breast, 0.88 µM. Moreover, the GI50 was 0.994 µM in the test on MOLT-4 leukemia, 0.264 µM with NCI-H522 lung, over 100 µM with TK-10 renal and 2.67 µM in the test with UACC-62 melanoma. Further, the TGI with 786-0 renal, in the test on DU-145 prostate, in the test on HCC-2998 colon, in the test on HOP-62 NSCLC, in the test with HOP-92 NSCLC and in the test with MCF7 breast was over 100 µM throughout. The TGI with MOLT-4 leukemia is over 100 µM; in the test with NCI-H522 lung, 1.31 µM; in the test on TK-10 renal, over 100 µM; in the test on UACC-62 melanoma, over 100 µM.
`COc1cc(-c2cc(C(=O)Nc3nc4ccccc4s3)nc3cc(-c4ccccc4)nn23)cc(OC)c1OC`: the GI50 in the test on 786-0 renal is 2.59 µM; in the test on DU-145 prostate, 65 µM; with HCC-2998 colon it was over 100 µM; with HOP-62 NSCLC it was 9.87 µM; with HOP-92 NSCLC, 0.775 µM; with MCF7 breast, 22.4 µM. For the same compound, the GI50 in the test with MOLT-4 leukemia was over 100 µM; in the test with NCI-H522 lung, 1.96 µM; in the test on TK-10 renal, 11.9 µM; in the test with UACC-62 melanoma, 14.4 µM. In addition, the TGI in the test on 786-0 renal was 12.8 µM; with DU-145 prostate it was over 100 µM; in the test with HCC-2998 colon, over 100 µM; in the test with HOP-62 NSCLC it was 27.2 µM; with HOP-92 NSCLC, 5.24 µM; in the test on MCF7 breast it was over 100 µM. Besides, the TGI is over 100 µM in the test on MOLT-4 leukemia, 7.82 µM with NCI-H522 lung, 32.7 µM with TK-10 renal and 80.4 µM with UACC-62 melanoma.
For `O=C1NC(=O)[C@@H](c2cn3c4c(cccc24)CCC3)[C@@H]1c1c[nH]c2ccccc12`, the GI50 was 0.544 µM and 0.809 µM in the test with 786-0 renal; 0.417 µM and 0.442 µM in the test on DU-145 prostate; 0.59 µM and 0.49 µM in the test on HCC-2998 colon; 0.423 µM and 0.465 µM with HOP-62 NSCLC; 0.354 µM and 1.68 µM with HOP-92 NSCLC; 0.246 µM and 0.331 µM in the test on MCF7 breast. The GI50 in the test with MOLT-4 leukemia is 0.717 µM and 0.891 µM; in the test with NCI-H522 lung, 0.201 µM and 0.365 µM; with TK-10 renal, 0.57 µM and 4.7 µM; with UACC-62 melanoma it was 0.443 µM and 0.51 µM. For the same compound, the TGI with 786-0 renal was > 10 µM and 18.8 µM; in the test with DU-145 prostate, > 10 µM and 6.81 µM; in the test on HCC-2998 colon, > 10 µM and 5.82 µM; with HOP-62 NSCLC, > 10 µM and 16.8 µM; with HOP-92 NSCLC, > 10 µM and 25.5 µM; with MCF7 breast, > 10 µM and 12.8 µM. In addition, the TGI in the test on MOLT-4 leukemia is > 10 µM and 18.1 µM; in the test on TK-10 renal it was > 10 µM and 35.5 µM; in the test with UACC-62 melanoma, > 10 µM and 18.3 µM.
For the compound `COc1ccc(C(=O)c2cc(OC)c(OC)c(OC)c2)cc1/C=C/C(=O)c1ccc(O)cc1`, the GI50 is 1.66 µM in the test on 786-0 renal; 1.88 µM with DU-145 prostate; 1.66 µM in the test with HCC-2998 colon; 21.1 µM with HOP-62 NSCLC; 1.21 µM in the test on HOP-92 NSCLC; 3.16 µM in the test with MCF7 breast. In addition, the GI50 in the test with MOLT-4 leukemia was 0.841 µM; in the test with NCI-H522 lung, 2.69 µM; with TK-10 renal it was 11.8 µM; in the test with UACC-62 melanoma, 1.69 µM. Further, the TGI came out at 3.74 µM in the test on 786-0 renal; 3.45 µM in the test on DU-145 prostate; 3.16 µM in the test on HCC-2998 colon; 53.4 µM in the test with HOP-62 NSCLC; 3.31 µM in the test on HOP-92 NSCLC; 15.9 µM in the test on MCF7 breast. Besides, the TGI in the test with MOLT-4 leukemia is over 100 µM; in the test with NCI-H522 lung, 15.8 µM; with TK-10 renal, 28.5 µM; in the test on UACC-62 melanoma, 3.77 µM.

These data come from PubChem BioAssay (NCI).
